Where “and” joins values, the source holds several entries; their conditions need not be identical. Equal entries are not always repeated. Inconclusive results are not listed.

For this assay, the system named is CD8F1 mice, subcutaneous mammary adenocarcinoma, T/C%. Briefly: NCI In Vivo Anticancer Drug Screen. Data for tumor model Mammary Adenocarcinoma CD8F1 (subcutaneous) in CD8F1. The conditions noted are these: higher = larger tumour. The procedure, abridged: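 Transplantable tumors were established in mice, animals were dosed with compound or vehicle, and survival or tumor size was then measured in both groups. The treated result was divided by the control result.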

Setting [1] is: endpoint: median tumor weight change, dose: 62.5 mg/kg/injection, schedule: Q01DX001 (ip), vehicle: saline with Tween-80.
Where [2] appears, read: endpoint: median tumor weight change, dose: 125.0 mg/kg/injection, schedule: Q01DX001 (ip), vehicle: saline with Tween-80.
[3] abbreviates: endpoint: median tumor weight change, dose: 250.0 mg/kg/injection, schedule: Q01DX001 (ip), vehicle: saline with Tween-80.
Where [4] appears, read: endpoint: median tumor weight change, dose: 500.0 mg/kg/injection, schedule: Q01DX001 (ip), vehicle: saline with Tween-80.
[5] abbreviates: endpoint: median tumor weight change, dose: 1000.0 mg/kg/injection, schedule: Q01DX001 (ip), vehicle: saline with Tween-80.
The mark [6] stands for this setting: endpoint: median tumor weight (est.), dose: 25.0 mg/kg/injection, schedule: Q07DX005 (ip), vehicle: saline with Tween-80.
Setting [7] is: endpoint: median tumor weight (est.), dose: 50.0 mg/kg/injection, schedule: Q07DX005 (ip), vehicle: saline with Tween-80.

Take `CC/C(=C(\c1ccccc1)c1ccc(OCCN(C)C)cc1)c1ccccc1`: the T/C was 102 % of control (endpoint: mean tumor weight (est.), dose: 150.0 mg/kg/injection, schedule: Q07DX002 (ip), vehicle: saline); 100 % of control (endpoint: mean tumor weight (est.), dose: 200.0 mg/kg/injection, schedule: Q07DX002 (ip), vehicle: saline); 45 % of control (endpoint: mean tumor weight, dose: 100.0 mg/kg/injection, schedule: Q07DX007 (ip), vehicle: saline); 52 % of control (endpoint: mean tumor weight, dose: 150.0 mg/kg/injection, schedule: Q07DX008 (ip), vehicle: saline); 15 % of control (endpoint: mean tumor weight, dose: 200.0 mg/kg/injection, schedule: Q07DX007 (ip), vehicle: saline); 31 % of control (endpoint: mean tumor weight, dose: 200.0 mg/kg/injection, schedule: Q07DX008 (ip), vehicle: saline). Further, the T/C is, setting by setting: (endpoint: median tumor weight change, dose: 25.0 mg/kg/injection, schedule: Q01DX001 (ip), vehicle: suspension in saline) 105 % of control; (endpoint: median tumor weight change, dose: 50.0 mg/kg/injection, schedule: Q01DX001 (ip), vehicle: suspension in saline) 111 % of control; (endpoint: median tumor weight change, dose: 100.0 mg/kg/injection, schedule: Q01DX001 (ip), vehicle: suspension in saline) 150 % of control; (endpoint: median tumor weight change, dose: 200.0 mg/kg/injection, schedule: Q01DX001 (ip), vehicle: suspension in saline) 158 % of control.
For `CC(=O)N(C)C`, the T/C is 52 % of control (endpoint: median tumor weight change, dose: 225.0 mg/kg/injection, schedule: Q01DX001 (ip), vehicle: saline); 85 % of control (endpoint: median tumor weight change, dose: 450.0 mg/kg/injection, schedule: Q01DX001 (ip), vehicle: saline); 72 % of control and 78 % of control (endpoint: median tumor weight change, dose: 900.0 mg/kg/injection, schedule: Q01DX001 (ip), vehicle: saline).
With `COC1(OC)C2C=CC1CC2`, the T/C reads like this: under setting [1], 94 % of control; under setting [2], 82 % of control; under setting [3], 107 % of control; under setting [4], 58 % of control.
As to `Nc1ccc(S(N)(=O)=O)cc1`, the T/C by setting is: under setting [1], 112 % of control; under setting [2], 110 % of control; under setting [3], 88 % of control; under setting [4], 64 % of control; under setting [5], 124 % of control.
Take `COc1ccc2nc3cc(Cl)ccc3c(NCCNCCNCCNc3c4ccc(Cl)cc4nc4ccc(OC)cc34)c2c1`: the T/C by setting is: (endpoint: median tumor weight (est.), dose: 12.5 mg/kg/injection, schedule: Q07DX005 (ip), vehicle: saline with Tween-80) 86 % of control and 108 % of control; under setting [6], 68 % of control; under setting [7], 88 % of control.
For the molecule `CC(=O)Oc1ccccc1O`, the T/C runs as follows: (endpoint: median tumor weight change, dose: 62.5 mg/kg/injection, schedule: Q01DX001 (ip), vehicle: saline + Tween-80 + alcohol) 50 % of control; (endpoint: median tumor weight change, dose: 125.0 mg/kg/injection, schedule: Q01DX001 (ip), vehicle: saline + Tween-80 + alcohol) 57 % of control; (endpoint: median tumor weight change, dose: 250.0 mg/kg/injection, schedule: Q01DX001 (ip), vehicle: saline + Tween-80 + alcohol) 58 % of control.
With `c1cc(-c2cc3ccc(C4=NCCN4)cc3[nH]2)ccc1C1=NCCN1`, the T/C is 103 % of control (endpoint: median tumor weight (est.), dose: 6.25 mg/kg/injection, schedule: Q07DX005 (ip), vehicle: suspension in saline); 60 % of control (endpoint: median tumor weight (est.), dose: 12.5 mg/kg/injection, schedule: Q07DX005 (ip), vehicle: suspension in saline); 45 % of control (endpoint: median tumor weight (est.), dose: 25.0 mg/kg/injection, schedule: Q07DX005 (ip), vehicle: saline); 164 % of control (endpoint: median tumor weight (est.), dose: 25.0 mg/kg/injection, schedule: Q07DX005 (ip), vehicle: suspension in saline); 99 % of control (endpoint: median tumor weight change, dose: 62.0 mg/kg/injection, schedule: Q01DX001 (ip), vehicle: suspension in saline).
In the case of `Cc1ccc2c(c1)N=C(Nc1ccccc1)N=S2(C)=O` (stereo not given), the T/C by setting is: (endpoint: median tumor weight change, dose: 7.81 mg/kg/injection, schedule: Q01DX001 (ip), vehicle: saline with Tween-80) 115 % of control; (endpoint: median tumor weight change, dose: 15.62 mg/kg/injection, schedule: Q01DX001 (ip), vehicle: saline with Tween-80) 121 % of control; (endpoint: median tumor weight change, dose: 31.25 mg/kg/injection, schedule: Q01DX001 (ip), vehicle: saline with Tween-80) 67 % of control; under setting [2], 93 % of control.
Consider `O=C1CN(CCN2CC(=O)N(CN3CCOCC3)C(=O)C2)CC(=O)N1CN1CCOCC1`, for which the T/C is 53 % of control (endpoint: median tumor weight change, dose: 15.62 mg/kg/injection, schedule: Q01DX001 (ip), vehicle: water); 64 % of control (endpoint: median tumor weight change, dose: 31.25 mg/kg/injection, schedule: Q01DX001 (ip), vehicle: water); 96 % of control (endpoint: median tumor weight change, dose: 62.5 mg/kg/injection, schedule: Q01DX001 (ip), vehicle: water); 40 % of control (endpoint: median tumor weight change, dose: 125.0 mg/kg/injection, schedule: Q01DX001 (ip), vehicle: water).
Regarding `CCN(CC)c1ccc2[nH]c3c(C(N)=O)cc(=O)c(=O)c=3oc2c1`, the T/C by setting is: under setting [1], 92 % of control; under setting [3], 121 % of control; under setting [4], 28 % of control.
On to `O=C(c1cccnc1)c1cc(-c2ccccn2)c(=O)n2ccccc12`, for which the T/C was 182 % of control under setting [2]; 77 % of control under setting [3]; 78 % of control under setting [4]; 56 % of control under setting [5]; 110 % of control (endpoint: median tumor weight change, dose: 2000.0 mg/kg/injection, schedule: Q01DX001 (ip), vehicle: saline with Tween-80).
Take `NS(=O)(=O)OCCCCCCCOS(N)(=O)=O`: the T/C (endpoint: median tumor weight change, dose: 62.0 mg/kg/injection, schedule: Q01DX001 (ip), vehicle: saline with Tween-80) was 66 % of control; the T/C under setting [1] is 22 % of control; the T/C under setting [2] was 33 % of control and 34 % of control; the T/C under setting [3] was -27 % of control and -36 % of control.
With `C[C@H](CCC[C@H](C)OS(=O)(=O)c1ccccc1)OS(=O)(=O)c1ccccc1`, the T/C under setting [6] is 57 % of control; the T/C under setting [7] was 41 % of control; the T/C (endpoint: median tumor weight (est.), dose: 100.0 mg/kg/injection, schedule: Q07DX005 (ip), vehicle: saline with Tween-80) was 57 % of control; the T/C (endpoint: median tumor weight (est.), dose: 200.0 mg/kg/injection, schedule: Q07DX005 (ip), vehicle: saline with Tween-80) is 39 % of control.
For the molecule `C[C@]12CCC(=O)C(O)=C1CC[C@@H]1[C@@H]2CC[C@]2(C)C(=O)CC[C@@H]12`, the T/C reads like this: (endpoint: median tumor weight (est.), dose: 100.0 mg/kg/injection, schedule: Q01DX001 (ip), vehicle: Klucel (hydroxypropylcellulose) (HPC)) 182 % of control; (endpoint: median tumor weight (est.), dose: 100.0 mg/kg/injection, schedule: Q07DX005 (ip), vehicle: Klucel (hydroxypropylcellulose) (HPC)) 32 % of control; (endpoint: median tumor weight (est.), dose: 200.0 mg/kg/injection, schedule: Q01DX001 (ip), vehicle: Klucel (hydroxypropylcellulose) (HPC)) 9 % of control; (endpoint: median tumor weight (est.), dose: 200.0 mg/kg/injection, schedule: Q07DX005 (ip), vehicle: Klucel (hydroxypropylcellulose) (HPC)) 62 % of control; (endpoint: median tumor weight (est.), dose: 400.0 mg/kg/injection, schedule: Q01DX001 (ip), vehicle: Klucel (hydroxypropylcellulose) (HPC)) 189 % of control; (endpoint: median tumor weight (est.), dose: 400.0 mg/kg/injection, schedule: Q07DX005 (ip), vehicle: Klucel (hydroxypropylcellulose) (HPC)) 32 % of control. Further, the T/C was 68 % of control (endpoint: median tumor weight (est.), dose: 800.0 mg/kg/injection, schedule: Q01DX001 (ip), vehicle: Klucel (hydroxypropylcellulose) (HPC)); 54 % of control (endpoint: median tumor weight (est.), dose: 800.0 mg/kg/injection, schedule: Q07DX005 (ip), vehicle: Klucel (hydroxypropylcellulose) (HPC)); 78 % of control (endpoint: median tumor weight change, dose: 125.0 mg/kg/injection, schedule: Q01DX001 (ip), vehicle: Klucel (hydroxypropylcellulose) (HPC)); 91 % of control (endpoint: median tumor weight change, dose: 250.0 mg/kg/injection, schedule: Q01DX001 (ip), vehicle: Klucel (hydroxypropylcellulose) (HPC)); 72 % of control (endpoint: median tumor weight change, dose: 500.0 mg/kg/injection, schedule: Q01DX001 (ip), vehicle: Klucel (hydroxypropylcellulose) (HPC)); 68 % of control (endpoint: median tumor weight change, dose: 1000.0 mg/kg/injection, schedule: Q01DX001 (ip), vehicle: Klucel (hydroxypropylcellulose) (HPC)). Further, the T/C (endpoint: median tumor weight change, dose: 2000.0 mg/kg/injection, schedule: Q01DX001 (ip), vehicle: Klucel (hydroxypropylcellulose) (HPC)) is 72 % of control.
